We go through six molecules from patent US20130123108A1, “ACTIVE SUBSTANCE COMPOSITION COMPRISING AT LEAST ONE NITROGEN ATOM-CONTAINING, HYPERBRANCHED POLYMER” (BASF SE, priority 2005, published 2013).

The nature of series [1]: Redispersing of polymer/active substance compositions in buffer, general procedure 1. Particulars: phosphate buffer pH 6.8. Further details: key: 1: unsatisfactory redispersing, sediment; 2: no ambiguous assessment possible; 3: complete redispersing with clouding (weak to opaque); 4: clear solution. Format: physicochemical. Here is the method: Each time 1 or 10% by weight solutions in N,N-dimethylformamide (DMF) of the hyperbranched polymer to be assessed and also 0.1% by weight solutions of the active substances, likewise in DMF, were provided. Active substance compositions were prepared by mixing in a Tecan pipetting robot with the use of 1 ml flat-bottomed glass vessels from HJ-Bioanalytik (96-well plates in the deep well format). Each time 50 μl of polymer and 500 μl of active substance solution were added to a vessel and the solvent was subsequently removed by drying for 24 hours in a vacuum-drying chamber at 70° C. and a pressure of less than 10 mbar. The test samples were subsequently redispersed by addition of 500 μl of buffer solution (phosphate buffer pH 6.8, 23.05 g of potassium dihydrogenphosphate, 23.30 g of disodium hydrogenphosphate, deionized water made up to 5000 ml) and subsequent shaking for two hours using an HP MTP shaker. The assessment was carried out by measuring the particle size using diffusion light scattering after a resting phase of 2 h.
1=unsatisfactory redispersing, sediment 2=no ambiguous assessment possible 3=complete redispersing with clouding (weak to opaque) 4=clear solution
Determination of the properties of aqueous active substance compositions according to general procedure 1. Use was made of bentazon at a polymer/active substance ratio of 1:1 and metazachlor at a polymer/active substance ratio of 10:1.

Series [2] in a line: Solubility from solid dispersion with hyperbranched polymer, general procedure 2. Format: physicochemical. Particulars: for solubility at 24 h: pH 6.8, aqueous with cosolvent or surfactant or cyclodextrin, thermodynamic from solid. Here is the method:
0.5 g of the chosen polymer and 0.1 g of a compound to be dissolved in water were dissolved in approximately 20 ml of N,N-dimethylformamide (DMF). The mixture was stirred and subsequently freed from DMF. A solid dispersion of the chosen copolymer with the chosen compound to be dissolved was obtained. The solid dispersion was added to 100 ml of water (buffered to pH 6.8) and the mixture was stirred for 24 h. After filtration, solutions were obtained and their contents of the compound to be dissolved were determined using HPLC and a UV detector. The literature values for water solubilities of the chosen compounds and the wavelengths of the measurement by UV spectroscopy are listed in table 1:
Determination of the properties of aqueous active substance compositions according to general procedure 2.

For series [3] the following is noted: literature values, Table 1; cited from earlier work.
The nature of series [4]: Solubility in supersaturated polymer solution, general procedure 3. Particulars: phosphate buffer pH 7.0 with hyperbranched polymer, pH 7, aqueous with cosolvent or surfactant or cyclodextrin, thermodynamic from solid, 0.2 g piroxicam, 20 g phosphate buffer pH 7.0, UV spectroscopy. Format: physicochemical. The method, then:
Approximately 2 g of polymer were weighed out in a glass beaker. Subsequently, 0.2 g of piroxicam or 0.3 g of carbamazepine was each time weighed out into the charge in order to obtain a supersaturated solution. Subsequently, 20 g of phosphate buffer pH 7.0 were added. After filtration, solutions were obtained and their contents of the compound to be dissolved were determined by UV spectroscopy.
Determination of the properties of aqueous active substance compositions according to general procedure 3.

The conditions of series [5]: literature values, Table 2; cited from earlier work.
Setting [6] is: water buffered to pH 6.8 with hyperbranched polymer, 0.5 g polymer, 0.1 g compound, 100 ml water buffered to pH 6.8, stirred 24 h, HPLC/UV, read-out: Solubility in the presence of Polymer 5.
Where [7] appears, read: water buffered to pH 6.8 with hyperbranched polymer, Solubility in the presence of Polymer 1, 0.5 g polymer, 0.1 g compound, 100 ml water buffered to pH 6.8, stirred 24 h, HPLC/UV.

Read-outs that look alike come from different tables or passages of the source.

Turning to `CC(C)N1C(=O)c2ccccc2NS1(=O)=O` [Bentazon], the Assessment came out at 4 in series [1] (Polymer from example 1, polymer/active substance ratio 1:1) and 4 in series [1] (Polymer from example 6, polymer/active substance ratio 1:1).

In the case of `NC(=O)N1c2ccccc2C=Cc2ccccc21` [Carbamazepine], the solubility at 24 h in series [2] (setting [6]) is 190 µg/mL; in series [2] (setting [7]), 181 µg/mL; in series [2] (water buffered to pH 6.8 with hyperbranched polymer, Solubility in the presence of Polymer 4, 0.5 g polymer, 0.1 g compound, 100 ml water buffered to pH 6.8, stirred 24 h, HPLC/UV) it was 336 µg/mL. Further, the “Water solubility (without polymer)” value in series [3] was 120 µg/mL.

For the molecule `CCOC(=O)/C(Cl)=C/c1cc(N2C(=O)C3=C(CCCC3)C2=O)ccc1Cl` [Cinidon-ethyl], the “Solubility in the presence of Polymer 1” value in series [2] (0.5 g polymer, 0.1 g compound, 100 ml water buffered to pH 6.8, stirred 24 h, HPLC/UV) is 97 µg/mL. The “Water solubility (without polymer)” value in series [3] is 0.057 µg/mL.

As to `CN1C(C(=O)Nc2ccccn2)=C(O)c2ccccc2S1(=O)=O` [Piroxicam], the solubility at 24 h is 1110 µg/mL in series [2] (setting [6]) and 1020 µg/mL in series [2] (setting [7]). Moreover, the solubility in series [4] (Solubility in the presence of Polymer 1, approx. 2 g polymer) is 9200 µg/mL; in series [4] (approx. 2 g polymer, read-out: Solubility in the presence of Polymer 3), 5300 µg/mL. The “Water solubility (without polymer)” value was 420 µg/mL in series [5] and 200 µg/mL in series [3].

For `Cc1cccc(C)c1N(Cn1cccn1)C(=O)CCl` [Metazachlor], the Assessment in series [1] (Polymer from example 1, polymer/active substance ratio 10:1) turned out to be 3; in series [1] (Polymer from example 6, polymer/active substance ratio 10:1), 3.

With `N#Cc1nn(-c2c(Cl)cc(C(F)(F)F)cc2Cl)c(N)c1[S+]([O-])C(F)(F)F` (centres unmarked) [Fipronil], in series [2] (Solubility in the presence of Polymer 1), the solubility at 24 h stood at 448 µg/mL.

In general, solubility refers to the concentration that dissolves in the medium under given conditions.
